{
  "source": "paper PMC8253137",
  "about": "“Microbiota-derived butyrate is an endogenous HIF prolyl hydroxylase inhibitor” (Gut Microbes, 2021)",
  "test_system": "murine enteroids",
  "test": "HIF stabilization in differentiated murine enteroids",
  "type": "cell-based, mice",
  "conditions": "butyrate with or without 1 mM MCPA, 4 h",
  "experimental": "Murine intestinal organoids/enteroids were isolated from wild-type C57BL/6 mice and cultured as previously described.[60] Briefly, colonic tissues were minced and then enzymatically digested and dissociated in GentleMACS tubes (Milteny Biotec). The homogenized tissues were then filtered through a 70 µm cell strainer and resuspended in Matrigel (Corning). Cells were cultured in L-WRN conditioned media until ready for differentiation into an epithelial lineage, in which the cells were incubated for 2 d in L-WRN media diluted 5-fold with DMEM:F-12 supplemented with 10% calf serum, 1% penicillin/streptomycin, and 1% GlutaMAX™. […] MCPA treatment also includes a 2 h pretreatment with MCPA before butyrate was added.\nTRIzol® reagent (ThermoFisher Scientific) was used to isolate total RNA from T84 cells. […] Quantitative PCR analysis was performed using the Power SYBR™ Green master mix (Applied Biosystems) in a thermocycler. Fold change in expression of target mRNA relative to β-actin (ACTB) mRNA was calculated using the delta-delta Ct method. […]\nT84 cells were rinsed with PBS and collected and lysed in 200 µL of radioimmunoprecipitation assay (RIPA, 50 mM Tris-HCl pH 8.0, 1 mM EDTA, 1% Triton X-100, […], 0.5% sodium deoxycholate, 150 mM NaCl) buffer with protease inhibitors on ice. […] Protein quantity of the supernatant was determined using the Bradford reagent. […]",
  "data": [
    {"compound": "CCCC(=O)O", "note": "[Butyrate]", "values": [
      {"measurement": "HIF-1α protein expression", "value": "increased HIF-1α protein expression"},
      {"measurement": "HIF-1α target gene expression", "value": "induced expression of HIF-1α target genes"}
    ]}
  ]
}
